What was measured:
D(2) dopamine receptor [1] = molecular target: T1, D(2) dopamine receptor (Homo sapiens, UniProt P14416); assay: Agonist activity at dopamine D2 receptor (unknown origin) expressed in CHOK1 cells coexpressing Galpha15 at 10 uM by FLIPR assay relative to control; format: cell-based; conditions: CHO-K1
[2] = molecular target: T2, 5-hydroxytryptamine receptor 1A (Homo sapiens, UniProt P08908); assay: Binding affinity to 5HT1A receptor (unknown origin)
T2 sequence (P08908 whole entry): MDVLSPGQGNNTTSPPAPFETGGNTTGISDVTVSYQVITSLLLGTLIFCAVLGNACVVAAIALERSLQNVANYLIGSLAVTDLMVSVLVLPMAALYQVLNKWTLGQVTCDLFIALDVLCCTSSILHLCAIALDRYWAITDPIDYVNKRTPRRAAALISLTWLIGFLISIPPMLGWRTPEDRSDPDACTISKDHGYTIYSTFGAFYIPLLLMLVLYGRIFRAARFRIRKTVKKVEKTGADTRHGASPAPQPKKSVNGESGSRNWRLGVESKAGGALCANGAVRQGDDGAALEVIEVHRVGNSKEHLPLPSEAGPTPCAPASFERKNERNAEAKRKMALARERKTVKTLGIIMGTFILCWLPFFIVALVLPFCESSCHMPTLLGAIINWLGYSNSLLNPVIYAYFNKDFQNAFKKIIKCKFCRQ

D(3) dopamine receptor = D(3) dopamine receptor (Homo sapiens, UniProt P35462); assay: Binding affinity to dopamine D3 receptor (unknown origin)
D(2) dopamine receptor [3] = molecular target: T1, D(2) dopamine receptor
Mus musculus [4] = assay: Toxicity in po dosed mouse assessed as induction of catalepsy; format: organism-based; conditions: in vivo
[5] = molecular target: T3, 5-hydroxytryptamine receptor 2A (Homo sapiens, UniProt P28223); assay: Antagonist activity at 5HT2A receptor (unknown origin) expressed in CHOK1 cells coexpressing Galpha15 assessed as inhibition of agonist-induced response at 10 uM incubated for 60 mins in incubator followed by 15 mins at room temperature by FLIPR assay relative to control; format: cell-based; conditions: CHO-K1
[6] = molecular target: T4, Alpha-1A adrenergic receptor (Homo sapiens, UniProt P35348); assay: Binding affinity to alpha-1A adrenergic receptor (unknown origin); conditions: read-out: pA2 (converted)
T4 sequence (P35348 whole entry): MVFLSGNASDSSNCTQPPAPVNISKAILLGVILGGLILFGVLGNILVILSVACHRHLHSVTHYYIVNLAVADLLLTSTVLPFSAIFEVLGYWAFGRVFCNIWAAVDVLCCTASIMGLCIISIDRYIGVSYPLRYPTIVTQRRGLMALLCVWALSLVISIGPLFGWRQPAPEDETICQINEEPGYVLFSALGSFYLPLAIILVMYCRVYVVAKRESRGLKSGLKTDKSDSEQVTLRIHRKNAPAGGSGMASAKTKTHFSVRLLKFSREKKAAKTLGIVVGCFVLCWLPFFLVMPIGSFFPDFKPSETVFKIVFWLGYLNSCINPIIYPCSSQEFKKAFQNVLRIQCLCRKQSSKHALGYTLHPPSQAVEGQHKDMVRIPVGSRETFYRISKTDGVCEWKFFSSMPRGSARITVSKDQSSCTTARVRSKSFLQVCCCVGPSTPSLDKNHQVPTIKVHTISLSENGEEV

[7] = molecular target: T3, 5-hydroxytryptamine receptor 2A; assay: Binding affinity to 5HT2A receptor (unknown origin)
Mus musculus [8] = organism: Mus musculus; assay: animal or person; conditions: po
Description: Antipsychotic activity in po dosed mouse assessed as reduction in apomorphine-induced climbing behavior administered for 30 mins prior to apomorphine-challenge measured at 10 to 30 mins post-dose

in vivo [9] = conditions: mouse, po
Description: Therapeutic Index, ratio of ED50 for catalepsy in mouse to ED50 for antipsychotic activity in po dosed mouse assessed as reduction in apomorphine-induced climbing behavior

Mus musculus [10] = organism: Mus musculus; assay: animal or person; conditions: po; remark: listed apart in the source
in vivo [11] = conditions: mouse, po; remark: listed apart in the source
[12] = molecular target: 5-hydroxytryptamine receptor 2A (Rattus norvegicus, UniProt P14842); assay: Displacement of [3H]ketanserin from 5HT2A receptor in rat cerebral cortex after 15 mins by liquid scintillation counting analysis; format: tissue-based
D(2) dopamine receptor [13] = molecular target: D(2) dopamine receptor (Rattus norvegicus, UniProt P61169)
[14] = molecular target: T5, 5-hydroxytryptamine receptor 1A (Rattus norvegicus, UniProt P19327); assay: biochemical
T5 sequence (P19327 whole entry): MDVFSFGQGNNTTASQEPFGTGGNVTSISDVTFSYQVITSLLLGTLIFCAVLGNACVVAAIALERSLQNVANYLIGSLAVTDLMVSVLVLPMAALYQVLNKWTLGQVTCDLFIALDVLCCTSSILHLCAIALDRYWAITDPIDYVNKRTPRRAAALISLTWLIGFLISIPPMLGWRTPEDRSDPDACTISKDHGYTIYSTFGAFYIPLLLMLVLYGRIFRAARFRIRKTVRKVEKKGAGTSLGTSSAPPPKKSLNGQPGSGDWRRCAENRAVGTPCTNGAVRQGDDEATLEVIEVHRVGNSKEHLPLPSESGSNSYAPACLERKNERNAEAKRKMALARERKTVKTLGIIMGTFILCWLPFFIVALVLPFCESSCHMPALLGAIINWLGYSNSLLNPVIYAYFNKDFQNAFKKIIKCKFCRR
Description: Displacement of [3H]8-OH-DPAT from 5HT1A receptor in rat cerebral cortex after 30 mins by liquid scintillation counting analysis

Rattus norvegicus [15] = assay: Antipsychotic activity in po dosed rat assessed as reduction in conditioned avoidance response after 60 mins; format: functional; conditions: 1 h
Mus musculus [16] = assay: Toxicity in mouse assessed as weight gain at 0.06 to […], po for 28 days; format: organism-based; design: dose 0.06-0.16 mg/kg, route oral; conditions: in vivo, 672 h
Rattus norvegicus [17] = assay: Toxicity in rat assessed as QT interval prolongation at 30 mg/kg, po by electrophysiology assay; format: organism-based; design: dose 30 mg/kg, route oral; conditions: in vivo
D(2) dopamine receptor [18] = molecular target: T1, D(2) dopamine receptor; remark: listed apart in the source
D(2) dopamine receptor [19] = molecular target: T1, D(2) dopamine receptor; assay: Antagonist activity at dopamine D2 receptor (unknown origin) expressed in CHOK1 cells coexpressing Galpha15 assessed as inhibition of agonist-induced response at 10 uM incubated for 60 mins in incubator followed by 15 mins at room temperature by FLIPR assay relative to control; format: cell-based; conditions: CHO-K1
[20] = molecular target: T3, 5-hydroxytryptamine receptor 2A; assay: Agonist activity at 5HT2A receptor (unknown origin) expressed in CHOK1 cells coexpressing Galpha15 at 10 uM by FLIPR assay relative to control; format: cell-based; conditions: CHO-K1

5-hydroxytryptamine receptor 2A (Rattus norvegicus, UniProt P14842), sequence (P14842 whole entry): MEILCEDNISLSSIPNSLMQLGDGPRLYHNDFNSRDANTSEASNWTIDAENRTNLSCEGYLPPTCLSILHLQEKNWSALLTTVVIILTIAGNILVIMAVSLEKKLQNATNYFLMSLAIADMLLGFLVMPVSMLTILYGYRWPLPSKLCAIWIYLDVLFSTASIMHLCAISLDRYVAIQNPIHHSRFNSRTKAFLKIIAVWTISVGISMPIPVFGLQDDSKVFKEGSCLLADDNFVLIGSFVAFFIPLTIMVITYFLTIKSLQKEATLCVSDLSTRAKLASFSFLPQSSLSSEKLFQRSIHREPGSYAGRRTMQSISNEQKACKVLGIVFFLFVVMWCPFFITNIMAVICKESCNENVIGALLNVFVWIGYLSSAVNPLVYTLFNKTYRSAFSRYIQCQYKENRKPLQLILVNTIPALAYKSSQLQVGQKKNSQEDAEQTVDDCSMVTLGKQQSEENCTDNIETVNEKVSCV
T3 sequence (P28223 whole entry): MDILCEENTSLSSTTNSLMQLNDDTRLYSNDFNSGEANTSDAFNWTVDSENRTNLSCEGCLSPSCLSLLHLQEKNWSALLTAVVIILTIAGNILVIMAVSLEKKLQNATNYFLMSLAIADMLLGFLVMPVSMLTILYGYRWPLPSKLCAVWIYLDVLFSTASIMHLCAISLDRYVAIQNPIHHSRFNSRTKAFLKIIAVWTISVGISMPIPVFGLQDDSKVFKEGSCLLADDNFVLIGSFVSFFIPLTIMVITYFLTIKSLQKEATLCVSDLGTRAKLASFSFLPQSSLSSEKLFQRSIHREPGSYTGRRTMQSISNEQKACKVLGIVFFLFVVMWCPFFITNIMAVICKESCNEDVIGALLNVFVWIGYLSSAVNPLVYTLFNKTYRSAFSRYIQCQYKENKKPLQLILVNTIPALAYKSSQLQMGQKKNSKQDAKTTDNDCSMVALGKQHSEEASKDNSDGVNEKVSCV
D(2) dopamine receptor (Rattus norvegicus, UniProt P61169), sequence (P61169 whole entry): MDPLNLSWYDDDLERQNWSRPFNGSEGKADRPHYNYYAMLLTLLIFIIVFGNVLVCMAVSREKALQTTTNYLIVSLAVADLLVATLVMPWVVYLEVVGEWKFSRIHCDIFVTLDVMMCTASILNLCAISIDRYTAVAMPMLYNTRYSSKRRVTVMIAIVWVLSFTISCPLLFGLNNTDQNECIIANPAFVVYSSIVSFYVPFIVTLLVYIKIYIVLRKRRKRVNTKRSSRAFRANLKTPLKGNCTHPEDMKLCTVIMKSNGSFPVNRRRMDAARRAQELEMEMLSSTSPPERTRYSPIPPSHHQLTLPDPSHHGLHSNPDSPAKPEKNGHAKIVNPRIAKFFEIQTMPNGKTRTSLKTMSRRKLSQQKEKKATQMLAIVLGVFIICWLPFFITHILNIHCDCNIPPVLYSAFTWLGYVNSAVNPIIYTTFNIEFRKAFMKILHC
T1 sequence (P14416 whole entry): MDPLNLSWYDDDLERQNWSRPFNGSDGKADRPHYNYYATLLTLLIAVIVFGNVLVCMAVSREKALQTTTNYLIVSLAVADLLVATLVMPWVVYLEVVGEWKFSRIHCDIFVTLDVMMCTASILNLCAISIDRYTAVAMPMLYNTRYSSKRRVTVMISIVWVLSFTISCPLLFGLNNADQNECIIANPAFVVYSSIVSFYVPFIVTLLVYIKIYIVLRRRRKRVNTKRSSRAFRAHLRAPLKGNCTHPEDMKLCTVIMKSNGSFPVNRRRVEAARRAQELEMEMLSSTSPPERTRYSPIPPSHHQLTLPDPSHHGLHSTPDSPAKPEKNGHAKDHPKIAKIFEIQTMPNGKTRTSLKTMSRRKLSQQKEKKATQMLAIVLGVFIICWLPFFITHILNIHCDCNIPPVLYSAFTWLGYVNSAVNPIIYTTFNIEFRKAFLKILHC
D(3) dopamine receptor, sequence (P35462 whole entry): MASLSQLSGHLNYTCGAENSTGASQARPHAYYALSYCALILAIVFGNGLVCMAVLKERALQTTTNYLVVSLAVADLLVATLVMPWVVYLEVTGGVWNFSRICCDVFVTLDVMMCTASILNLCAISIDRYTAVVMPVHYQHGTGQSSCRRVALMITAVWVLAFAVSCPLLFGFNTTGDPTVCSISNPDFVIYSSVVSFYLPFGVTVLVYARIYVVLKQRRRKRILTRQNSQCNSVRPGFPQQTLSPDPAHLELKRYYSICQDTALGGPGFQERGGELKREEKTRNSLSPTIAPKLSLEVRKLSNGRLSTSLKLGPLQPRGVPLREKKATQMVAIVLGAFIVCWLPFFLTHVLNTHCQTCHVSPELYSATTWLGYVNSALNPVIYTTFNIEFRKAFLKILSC

Row | Compound | Ki [12] | Ki (D(2) dopamine receptor [13]) | Ki [14] | further results
1 | NCCc1ccc(O)c(O)c1 |  |  |  | Activity (D(2) dopamine receptor [1]): 101%
2 | Cc1cc(=O)oc2cc(OCCCN3CCN(c4ccccc4)CC3)ccc12 |  |  |  | Ki [2]: 0.79 nM; Ki (D(3) dopamine receptor): 18.9 nM; Ki (D(2) dopamine receptor [3]): 10.8 nM
3 | CN1CCN(C2=Nc3cc(Cl)ccc3Nc3ccccc32)CC1 [CLOZAPINE] |  |  |  | ED50 (Mus musculus [4]): 92.73 mg/kg
4 | O=C(c1ccc(F)cc1)C1CCN(CCn2c(=O)[nH]c3ccccc3c2=O)CC1 |  |  |  | inhibition [5]: 99.9%
5 | COc1ccccc1N1CCN(CCCOc2ccc3c(C)cc(=O)oc3c2)CC1 |  |  |  | Kb [6]: 0.851 nM; Ki [7]: 174 nM; Ki (D(2) dopamine receptor [3]): 11.7 nM
6 | O=C(CCCN1CCC(O)(c2ccc(Cl)cc2)CC1)c1ccc(F)cc1 [HALOPERIDOL] |  |  |  | ED50 (Mus musculus [8]): 0.09 mg/kg; selectivity ratio (in vivo [9]): 2.44; ED50 (Mus musculus [4]): 0.22 mg/kg; ED50 (Mus musculus [10]): 0.19 mg/kg; selectivity ratio (in vivo [11]): 1.16
7 | Cc1c(C)c2ccc(OCCCCN3CCC(c4noc5cc(F)ccc45)CC3)c(C)c2oc1=O | 607 nM | 10.7 nM | 3070 nM | 
8 | Cc1nc2n(c(=O)c1CCN1CCC(c3noc4cc(F)ccc34)CC1)CCCC2 [RISPERIDONE] |  |  |  | ED50 (Mus musculus [8]): 0.02 mg/kg; ED50 (Rattus norvegicus [15]): 0.48 mg/kg; Activity (Mus musculus [16]): Toxic; Activity (Rattus norvegicus [17]): Toxic; ED50 (Mus musculus [10]): 0.01 mg/kg
9 | COc1ccccc1N1CCN(CCCCOc2ccc3c(C)c(C)c(=O)oc3c2)CC1 | 58.9 nM | > 10000 nM | > 10000 nM | 
10 | Cc1cc(=O)oc2cc(OCCCCN3CCN(c4cccc(Cl)c4Cl)CC3)ccc12 | 101 nM | 1870 nM | 11.5 nM | 
11 | Cc1cc(=O)oc2cc(OCCCCCN3CCC(c4noc5cc(F)ccc45)CC3)ccc12 | 306 nM | 123 nM | 1720 nM | 
12 | CCCc1cc(=O)oc2cc(OCCCCN3CCC(c4noc5cc(F)ccc45)CC3)ccc12 | 30.8 nM | 3.9 nM | 410 nM | 
13 | OCCN1CCN(CCCN2c3ccccc3Sc3ccc(Cl)cc32)CC1 [PERPHENAZINE] |  |  |  | IC50 (D(2) dopamine receptor [18]): 0.3 nM; inhibition (D(2) dopamine receptor [19]): 100%
14 | COc1cccc(-c2cc(=O)oc3cc(OCCCCN4CCC(c5noc6cc(F)ccc56)CC4)ccc23)c1 | > 10000 nM | 787 nM | > 10000 nM | 
15 | CCc1cc(=O)oc2cc(OCCCCN3CCC(c4noc5cc(F)ccc45)CC3)ccc12 | 51.3 nM | 1930 nM | 1470 nM | 
16 | O=c1cc(CO)c2ccc(OCCCCN3CCC(c4noc5cc(F)ccc45)CC3)cc2o1 | > 10000 nM | > 10000 nM | 2160 nM | 
17 | NCCc1c[nH]c2ccc(O)cc12 |  |  |  | Activity [20]: 100%
18 | Cc1cc(=O)oc2cc(OCCCCN3CCN(c4ccccn4)CC3)ccc12 | 897 nM | 2820 nM | 102 nM | 
19 | Cc1cc(=O)oc2cc(OCCCCN3CCC(C(=O)c4ccc(F)cc4)CC3)ccc12 | 257 nM | 182 nM | 165 nM | 

— ChEMBL document CHEMBL2385071, “Synthesis and biological investigation of coumarin piperazine (piperidine) derivatives as potential multireceptor atypical antipsychotics” (J Med Chem, 2013)
